This test addresses CBP (Homo sapiens (Human), UniProt Q92793). The experiment in a line: In vitro CBP inhibition (AlphaScreen, biotinylated H4-tetraacetyl peptide). Type of test: binding. Conditions: AlphaScreen, Table 29; read-out: CBP IC50. The method, boiled down:
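His-tagged CBP expressed in E. coli (50 nM final) incubated with biotinylated H4K5/8/12/16(Ac) peptide (20 nM final) in 50 mM HEPES pH 7.3, 10 mM NaCl, 0.25 mM TCEP, 0.1% BSA, 0.005% Brij-35, 0.4% DMSO, 20 min at room temp.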
A general note: Alpha assays give light when donor and acceptor beads are brought close together.

SMILES strings stand for the structures.

CBP, sequence (Q92793 1081-1197): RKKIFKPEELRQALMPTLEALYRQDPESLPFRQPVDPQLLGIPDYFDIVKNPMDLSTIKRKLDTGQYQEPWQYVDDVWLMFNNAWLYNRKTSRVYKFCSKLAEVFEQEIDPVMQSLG

Broadly, the IC50 is the concentration that inhibits the measured activity by half. Regarding `CNNc1cc(=O)n(C)cc1-c1cnn(Cc2ccccc2)c1` [Example 99, 5-(1-benzyl-1H-pyrazol-4-yl)-1-methyl-4-(2-methyl-hydrazinyl)-pyridin-2(1H)-one], the IC50 was in the range of 500 to 5000 nM.
As for `COc1ncc(-c2cc(=O)n(C)cc2-c2cnn(-c3ccccc3C#N)c2)cn1` [Example 244, 2-{4-[4-(2-Methoxy-pyrimidin-5-yl)-1-methyl-6-oxo-1,6-dihydro-pyridin-3-yl]-pyrazol-1-yl}-benzonitrile], the figure is < 500 nM; as for `CN(C)c1ncc(-c2cc(=O)n(C)cc2-c2cnn(-c3cccc(F)c3C#N)c2)cn1` [Example 334, 2-[4-[4-[2-(dimethylamino)pyrimidin-5-yl]-1-methyl-6-oxo-3-pyridyl]pyrazol-1-yl]-6-fluoro-benzonitrile], < 500 nM.
The same measure for `COc1ccc(-c2cc(=O)n(C)cc2-c2cnn(-c3cccc(Cl)c3C#N)c2)cn1` [Example 277, 2-Chloro-6-[4-(6-methoxy-1′-methyl-6′-oxo-1′,6′-dihydro-[3,4′]bipyridinyl-3′-yl)-pyrazol-1-yl]-benzonitrile]: < 500 nM; for `Cn1cc(-c2cnn(-c3ccccc3C(=O)NC#N)c2)c(-c2ccc(F)cc2)cc1=O` [Example 288, N-cyano-2-(4-(4-(4-fluorophenyl)-1-methyl-6-oxo-1,6-dihydropyridin-3-yl)-1H-pyrazol-1-yl)benzamide]: < 500 nM; for `CCNc1ncc(-c2cc(=O)n(C)cc2-c2cnn(-c3cccc(F)c3C#N)c2)cn1` [Example 333, 2-[4-[4-[2-(ethylamino)pyrimidin-5-yl]-1-methyl-6-oxo-3-pyridyl]pyrazol-1-yl]-6-fluoro-benzonitrile]: < 500 nM.
Consider `COc1ccc(-c2cc(=O)n(C)cc2-c2cnn(Cc3ccccc3)c2)cc1` [Example 120, 5-(1-benzyl-1H-pyrazol-4-yl)-4-(4-methoxyphenyl)-1-methyl-pyridin-2(1H)-one], for which the IC50 was < 500 nM.
As for `C[C@@H](c1ccccc1)n1cc(-c2cn(C)c(=O)cc2-n2cccn2)cn1` [Example 60, (S)-1-methyl-5-(1-(1-phenylethyl)-1H-pyrazol-4-yl)-4-(1H-pyrazol-1-yl)pyridin-2(1H)-one], the figure is < 500 nM; as for `Cc1cc(-c2cnn(C(C)c3cccc(C(F)F)c3)c2)cn(C)c1=O` (stereo not drawn) [Example 11, 5-(1-(1-(3-(difluoro-methyl)phenyl)ethyl)-1H-pyrazol-4-yl)-1,3-dimethylpyridin-2(1H)-one], < 500 nM.
As for `Cc1cccc(-c2cc(=O)n(C)cc2-c2cnn(Cc3ccccc3)c2)c1` [Example 111, 5-(1-benzyl-1H-pyrazol-4-yl)-1-methyl-4-(m-tolyl)-pyridin-2(1H)-one], the figure is < 500 nM; as for `Cn1cc(-c2cnn(-c3cccc(Cl)c3C#N)c2)c(-c2cnc(N3CCCC3)nc2)cc1=O` [Example 330, 2-chloro-6-(4-(1-methyl-6-oxo-4-(2-(pyrrolidin-1-yl)pyrimidin-5-yl)-1,6-dihydropyridin-3-yl)-1H-pyrazol-1-yl)benzonitrile], < 500 nM; as for `Cn1cc(-c2cnn(Cc3ccccc3)c2)c(OCC#N)cc1=O` [Example 167, [5-(1-Benzyl-1H-pyrazol-4-yl)-1-methyl-2-oxo-1,2-dihydro-pyridin-4-yloxy]-acetonitrile], < 500 nM.
The same measure for `Cn1cc(-c2cnn(Cc3ccccc3)c2)c(-c2cc[nH]c(=O)c2)cc1=O` [Example 193, 5-(1-Benzyl-1 H-pyrazol-4-yl)-1-methyl-1H,1′H-[4,4′]bipyridinyl-2,2′-dione]: < 500 nM; for `CC(c1cccc(Cl)c1)n1cc(-c2ccc(=O)n(C)c2)cn1` (stereo not drawn) [Example 23, 5-(1-(1-(3-chlorophenyl)ethyl)-1H-pyrazol-4-yl)-1-methyl-pyridin-2(1H)-one]: < 500 nM.
With `Cn1cc(-c2cnn(Cc3ccccc3)c2)c(-c2cnn(CC#N)c2)cc1=O` [Example 163, 2-(4-(5-(1-benzyl-1H-pyrazol-4-yl)-1-methyl-2-oxo-1,2-dihydropyridin-4-yl)-1H-pyrazol-1-yl)acetonitrile], the IC50 is < 500 nM.
For the compound `Cn1cc(-c2cnn(Cc3ccccc3)c2)c(N2CC[C@@H](NS(=O)(=O)C(F)(F)F)C2)cc1=O` [Example 173, (R)-N-(1-(5-(1-benzyl-1H-pyrazol-4-yl)-1-methyl-2-oxo-1,2-dihydropyridin-4-yl)pyrrolidin-3-yl)-1,1,1-trifluoromethanesulfonamide], the IC50 is 500 to 5000 nM.
As for `CCOc1cc(=O)n(C)cc1-c1cn(Cc2ccccc2)nc1[N+](=O)[O-]` [Example 185, 5-(1-benzyl-3-nitro-1H-pyrazol-4-yl)-4-ethoxy-1-methylpyridin-2(1H)-one], the figure is < 500 nM; as for `Cn1ccc(-c2cc(=O)n(C)cc2-c2cnn(-c3ccccc3Cl)c2)cc1=O` [Example 314, 5-(1-(2-chlorophenyl)-1H-pyrazol-4-yl)-1,1′-dimethyl-[4,4′-bipyridine]-2,2′(1H,1′H)-dione], < 500 nM.
For the compound `CCc1cc(-c2cnn(-c3ccccc3C#N)c2)cn(C)c1=O` [Example 256, 2-[4-(5-Ethyl-1-methyl-6-oxo-1,6-dihydro-pyridin-3-yl)-pyrazol-1-yl]-benzonitrile], the IC50 is < 500 nM.
The same measure for `Cn1cc(-c2cnn(Cc3ccccc3)c2)c(-c2ccc(C#N)cc2)cc1=O` [Example 150, 4-(5-(1-benzyl-1H-pyrazol-4-yl)-1-methyl-2-oxo-1,2-dihydro-pyridin-4-yl)benzonitrile]: < 500 nM.
`Cc1cc(-c2cnn(Cc3ccccc3)c2)cn(C)c1=O` [Example 13, 5-(1-benzyl-1H-pyrazol-4-yl)-1,3-dimethyl-pyridin-2(1H)-one]: the IC50 is < 500 nM.
The same measure for `CC(C)c1ccc(-c2cc(=O)n(C)cc2-c2cnn(-c3cccc(Cl)c3C#N)c2)cn1` [Example 376, 2-chloro-6-[4-[4-(6-isopropyl-3-pyridyl)-1-methyl-6-oxo-3-pyridyl]pyrazol-1-yl]benzonitrile]: < 500 nM; for `CCOc1cc(=O)n(C)cc1-c1cnn(C(C)c2ccc(C)cc2)c1` (stereo not drawn) [Example 62, 4-ethoxy-1-methyl-5-(1-(1-(p-tolyl)ethyl)-1H-pyrazol-4-yl) pyridin-2(1H)-one]: < 500 nM; for `CC(c1ccccc1)n1cc(-c2cc(N(C)C)c(=O)n(C)c2)cn1` (stereo not drawn) [Example 196, 3-Dimethylamino-1-methyl-5-[1-(1-phenyl-ethyl)-1H-pyrazol-4-yl]-1H-pyridin-2-one]: 500 to 5000 nM.
The same measure for `COc1ccc(-c2cc(=O)n(C)cc2-c2cnn(-c3cccc(F)c3C#N)c2)cn1` [Example 274, 2-Fluoro-6-[4-(6-methoxy-1′-methyl-6′-oxo-1′,6′-dihydro-[3,4′]bipyridinyl-3′-yl)-pyrazol-1-yl]-benzonitrile]: < 500 nM; for `CC(C)COc1ccc(-c2cc(=O)n(C)cc2-c2cnn(-c3ccccc3C#N)c2)cn1` [Example 236, 2-[4-(6-Isobutoxy-1′-methyl-6′-oxo-1′,6′-dihydro-[3,4′]bipyridinyl-3′-yl)-pyrazol-1-yl]-benzonitrile]: < 500 nM; for `Cn1cc(-c2cnn(Cc3ccccc3)c2)c(-c2cccnc2)cc1=O` [Example 122, 5′-(1-benzyl-1H-pyrazol-4-yl)-1′-methyl-[3,4-bipyridin]-2′(1′H)-one]: < 500 nM.

The record behind these values is patent publication US10617680B2 (CELGENE QUANTICEL RESEARCH, INC., priority 2017, dated 2020).
